Test results as given in PubChem BioAssay (NCI).
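Briefly, cells in 96-well plates were exposed to five compound concentrations for 48 h, and endpoints were estimated by linear interpolation. TGI is the concentration that stops growth completely.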

What was measured:
Test in all cases: NCI tumour cell line growth inhibition, 48 h
SR leukemia = tested on: SR leukemia
RXF 393 renal = tested on: RXF 393 renal
CAKI-1 renal = tested on: CAKI-1 renal
NCI-H226 lung = tested on: NCI-H226 lung
ACHN renal = tested on: ACHN renal
SK-MEL-28 melanoma = tested on: SK-MEL-28 melanoma
A549 NSCLC = tested on: A549 NSCLC
NCI-H460 lung = tested on: NCI-H460 lung
HL-60(TB) leukemia = tested on: HL-60(TB) leukemia
M14 melanoma = tested on: M14 melanoma
OVCAR-3 ovarian = tested on: OVCAR-3 ovarian
CCRF-CEM leukemia = tested on: CCRF-CEM leukemia
SF-295 CNS = tested on: SF-295 CNS
786-0 renal = tested on: 786-0 renal
SN12C renal = tested on: SN12C renal
DU-145 prostate = tested on: DU-145 prostate
UO-31 renal = tested on: UO-31 renal
EKVX NSCLC = tested on: EKVX NSCLC
SK-MEL-5 melanoma = tested on: SK-MEL-5 melanoma
BT-549 breast = tested on: BT-549 breast
MOLT-4 leukemia = tested on: MOLT-4 leukemia
IGROV1 ovarian = tested on: IGROV1 ovarian
KM12 colon = tested on: KM12 colon
COLO 205 colon = tested on: COLO 205 colon
HCT-116 colon = tested on: HCT-116 colon
PC-3 prostate = tested on: PC-3 prostate
HCT-15 colon = tested on: HCT-15 colon
K-562 leukemia = tested on: K-562 leukemia
TK-10 renal = tested on: TK-10 renal
SF-539 CNS = tested on: SF-539 CNS
SK-MEL-2 melanoma = tested on: SK-MEL-2 melanoma
SF-268 CNS = tested on: SF-268 CNS
MDA-MB-435 = tested on: MDA-MB-435
UACC-62 melanoma = tested on: UACC-62 melanoma
UACC-257 melanoma = tested on: UACC-257 melanoma
HT29 colon = tested on: HT29 colon
SNB-75 CNS = tested on: SNB-75 CNS
NCI-H23 lung = tested on: NCI-H23 lung
HOP-62 NSCLC = tested on: HOP-62 NSCLC
MCF7 breast = tested on: MCF7 breast
SNB-19 CNS = tested on: SNB-19 CNS
SW-620 colon = tested on: SW-620 colon
LOX IMVI melanoma = tested on: LOX IMVI melanoma
NCI/ADR-RES ovarian = tested on: NCI/ADR-RES ovarian
HS 578T breast = tested on: HS 578T breast
T-47D breast = tested on: T-47D breast
U251 CNS = tested on: U251 CNS
SK-OV-3 ovarian = tested on: SK-OV-3 ovarian
OVCAR-4 ovarian = tested on: OVCAR-4 ovarian
MDA-MB-231 breast = tested on: MDA-MB-231 breast
HOP-92 NSCLC = tested on: HOP-92 NSCLC
NCI-H522 lung = tested on: NCI-H522 lung
MALME-3M melanoma = tested on: MALME-3M melanoma
OVCAR-5 ovarian = tested on: OVCAR-5 ovarian
MDA-N = tested on: MDA-N
OVCAR-8 ovarian = tested on: OVCAR-8 ovarian
A498 renal = tested on: A498 renal

Compound: Oc1ccc(C(O)(c2ccccc2)c2ccccc2)c2ccccc12
- TGI (SR leukemia): 7.27 µM
- TGI (RXF 393 renal): > 100 µM
- TGI (CAKI-1 renal): 11.1 µM
- TGI (NCI-H226 lung): 9.8 µM
- TGI (ACHN renal): 3.73 µM
- TGI (SK-MEL-28 melanoma): 29.9 µM
- TGI (A549 NSCLC): 11.9 µM
- TGI (NCI-H460 lung): > 100 µM
- TGI (HL-60(TB) leukemia): > 100 µM
- TGI (M14 melanoma): 10.7 µM
- TGI (OVCAR-3 ovarian): 3.93 µM
- TGI (CCRF-CEM leukemia): 1.8 µM
- TGI (SF-295 CNS): 8.19 µM
- TGI (786-0 renal): 6.61 µM
- TGI (SN12C renal): 6.87 µM
- TGI (DU-145 prostate): 14 µM
- TGI (UO-31 renal): 11.6 µM
- TGI (EKVX NSCLC): 26.4 µM
- TGI (SK-MEL-5 melanoma): 14.6 µM
- TGI (BT-549 breast): 26.1 µM
- TGI (MOLT-4 leukemia): > 100 µM
- TGI (IGROV1 ovarian): 5.62 µM
- TGI (KM12 colon): 8.05 µM
- TGI (COLO 205 colon): 18.6 µM
- TGI (HCT-116 colon): 10.7 µM
- TGI (PC-3 prostate): 14.2 µM
- TGI (HCT-15 colon): 2.9 µM
- TGI (K-562 leukemia): 23.5 µM
- TGI (TK-10 renal): 8.73 µM
- TGI (SF-539 CNS): 4.62 µM
- TGI (SK-MEL-2 melanoma): 7.25 µM
- TGI (SF-268 CNS): 9.63 µM
- TGI (MDA-MB-435): 6.01 µM
- TGI (UACC-62 melanoma): 3.61 µM
- TGI (UACC-257 melanoma): 23.7 µM
- TGI (HT29 colon): 14.1 µM
- TGI (SNB-75 CNS): 18.2 µM
- TGI (NCI-H23 lung): 11.8 µM
- TGI (HOP-62 NSCLC): 7.16 µM
- TGI (MCF7 breast): > 100 µM
- TGI (SNB-19 CNS): 19.8 µM
- TGI (SW-620 colon): 9.64 µM
- TGI (LOX IMVI melanoma): 2.62 µM
- TGI (NCI/ADR-RES ovarian): 6.58 µM
- TGI (HS 578T breast): 44.8 µM
- TGI (T-47D breast): 24 µM
- TGI (U251 CNS): 2.91 µM
- TGI (SK-OV-3 ovarian): 14.1 µM
- TGI (OVCAR-4 ovarian): 20.7 µM
- TGI (MDA-MB-231 breast): 5.27 µM
- TGI (HOP-92 NSCLC): 5.22 µM
- TGI (NCI-H522 lung): 7.17 µM
- TGI (MALME-3M melanoma): 23.2 µM
- TGI (OVCAR-5 ovarian): 5.96 µM

Compound: CC(O)(C#N)CC(O)(C(F)(F)Cl)C(F)(F)Cl (configuration not stated)
- TGI (RXF 393 renal): > 10 µM
- TGI (CAKI-1 renal): > 10 µM
- TGI (NCI-H226 lung): > 10 µM
- TGI (ACHN renal): > 10 µM
- TGI (SK-MEL-28 melanoma): > 10 µM
- TGI (A549 NSCLC): > 10 µM
- TGI (M14 melanoma): > 10 µM
- TGI (OVCAR-3 ovarian): > 10 µM
- TGI (SF-295 CNS): > 10 µM
- TGI (SN12C renal): > 10 µM
- TGI (DU-145 prostate): > 10 µM
- TGI (UO-31 renal): > 10 µM
- TGI (EKVX NSCLC): > 10 µM
- TGI (SK-MEL-5 melanoma): > 10 µM
- TGI (MDA-N): > 10 µM
- TGI (IGROV1 ovarian): > 10 µM
- TGI (KM12 colon): > 10 µM
- TGI (COLO 205 colon): > 10 µM
- TGI (HCT-116 colon): > 10 µM
- TGI (OVCAR-8 ovarian): > 10 µM
- TGI (PC-3 prostate): > 10 µM
- TGI (HCT-15 colon): > 10 µM
- TGI (TK-10 renal): > 10 µM
- TGI (SF-539 CNS): > 10 µM
- TGI (SF-268 CNS): > 10 µM
- TGI (MDA-MB-435): > 10 µM
- TGI (HT29 colon): > 10 µM
- TGI (SNB-75 CNS): > 10 µM
- TGI (NCI-H23 lung): > 10 µM
- TGI (SNB-19 CNS): > 10 µM
- TGI (SW-620 colon): > 10 µM
- TGI (NCI/ADR-RES ovarian): > 10 µM
- TGI (U251 CNS): > 10 µM
- TGI (OVCAR-4 ovarian): > 10 µM
- TGI (MDA-MB-231 breast): > 10 µM
- TGI (HOP-92 NSCLC): > 10 µM
- TGI (A498 renal): > 10 µM
- TGI (OVCAR-5 ovarian): > 10 µM
